Patent publication US4374149A, “α-{[(Arylalkyl)amino]alkyl}-4-hydroxy-3-(lower-alkylsul finyl)benzenemethanols” (Sterling Drug Inc., priority 1978, dated 1983)
Counter-ions that a name gives are not always drawn.

What was measured:
[1] = test system: isolated rabbit ear artery; test: Vasodilator activity, perfusion pressure in isolated rabbit ear artery
Outline: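 Percent reduction in perfusion pressure of the isolated rabbit ear artery (De LaLande method) as the vasodilation read-out; vasodilator activity also judged from reduced hind-limb perfusion pressure in the anesthetized dog.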

[2] = test system: hind limb vasculature; test: Vasodilator activity, perfusion pressure in hind limb vasculature of anesthetized dog; assay type: in vivo; settings: intraarterial, anesthetized dog hind limb; for ED50: Canis lupus familiaris, read-out: Vasodilator activity Dog-Leg Perfusion AED50 (approximate intraarterial dose for 50 reduction in perfusion pressure)
Text: Vasodilator activity was judged on the basis of observed reduction in perfusion pressure in the hind limb vasculature of the anesthetized dog determined according to the procedure described by Jandhyala et al., European J. Pharm. 17, 357 (1972), and also on the basis of percent reduction in perfusion pressure as measured in the isolated rabbit ear artery according to the method described by De LaLande et al., Aust. J. Exp. Biol. Med. Sci. 43, 639 (1965).
^c AED50 = approximate intraarterial dose required to cause a 50

[3] = test system: β-adrenergic; test: β-adrenergic blocking activity, inhibition of isoproterenol-elicited heart rate increase in pentobarbitalized dog; assay type: in vivo; settings: i.v.; for Dog β-blockade AED50 (approximate intravenous dose for 50% inhibition of isoproterenol-elicited heart rate increase): pentobarbitalized dog
Protocol: The β-adrenergic blocking activity was determined in the pentobarbitalized dog as judged by the ability of the test compound to inhibit the elevation in heart rate elicited by a 0.5 mcg./kg. i.v. injection of isoproterenol.
^e AED50 = approximate intravenous dose required to cause 50%

[4] = test system: systolic blood pressure; test: Antihypertensive activity, reduction in systolic blood pressure, single oral medication, unanesthetized spontaneous hypertensive rat; assay type: in vivo; settings: for Antihypertensive activity SH Rat AHD40 (single oral dose required to induce a 40 mm. average reduction in systolic blood pressure) / Actual reduction in blood pressure observed at the indicated dose: P.O.; for Antihypertensive activity SH Rat AHD40 (single oral dose required to induce a 40 mm. average reduction in systolic blood pressure): unanesthetized SH rat
Protocol: Antihypertensive activity was determined on the basis of the observed reduction in systolic blood pressure measured according to the method of H. Kersten et al., J. Lab. and Clin. Med. 32, 1090 (1947) following a single oral medication in the unanesthetized spontaneous hypertensive rat described by Okamato et al., Japan Circulation J. 27, 282 (1963).
^a AHD40 = single oral dose required to induce a 40 mm. average

[5] = test system: blood pressure; test: Antihypertensive activity, sustained lowering of blood pressure, repeated oral medication, unanesthetized trained renal hypertensive dog; assay type: in vivo; settings: tid.; for Actual percentage reduction in blood pressure observed at the indicated dose: 0.125 mg./kg.
Text: Antihypertensive activity was also judged on the basis of sustained reduction of blood pressure observed in the unanesthetized trained renal hypertensive dog following repeated oral medication according to the procedure described by Lape et al., Arch.
^b MED10 = minimum repeated oral daily dose required to effect a

[6] = Acute intravenous and oral toxicity in mice; assay type: in vivo
Protocol: Acute intravenous and oral toxicity in mice was determined for the compound of Example 2G as follows: The compound was dissolved in distilled water and administered as the base at a volume of 10 ml./kg. for the i.v. ALD50 or 10-40 ml./kg. for the p.o. ALD50. The compound was administered in graded doses to groups of three mice each (Swiss-Webster strain males weighing 20±2 g.). Mortality occurred within 1 minute after i.v. administration and within 10 minutes after oral administration. […] The i.v. ALD50 was 75 mg./kg. and the p.o. ALD50 was 1500 mg./kg.

[7] = test system: Ba++-induced arrhythmia; test: Conversion of Ba++-induced arrhythmia in rabbits; assay type: in vivo; design: key: active (A); inactive (I)
Protocol: (§1) The test procedures were carried out as follows.
Adult rabbits or either sex weighing between 1.7 and 2.3 kg. were anesthetized with 30 to 35 mg./kg. Na-pentobarbital i.v. via a marginal ear vein. Monoplar ECG pin electrodes were inserted for a lead II display on a Model 5 Grass Polygraph using standard electrocardiographic procedures. A 23 ga. hypodermic needle, attached via a polyethylene catheter to a 10 cc. syringe, was inserted into the same vein as was used for anesthesia. A BaCl2.2H2 O solution in saline was then infused at a constant volume of 0.2 cc/min. from a Harvard Apparatus Model 600 infusion pump. This infusion was not stopped until termination of the experiment. In some studies barium chloride in distilled water was used without detectable differences. The standard rate of BaCl2.2H2 O infusion was established at 0.3 mg./kg./min. (1.2×10^-6 M/kg./min.), and the concentration was adjusted appropriately in each case to accommodate the weight of the rabbit.
When the desired arrhythmia was established, the test compound was introduced as a water or saline solution into the marginal ear vein of the unused ear. The volume used was between 0.5 and 2.0 cc./kg. and was injected as a bolus over approximately 30 seconds. Deviations from standard vehicle, rate of injection and total volume administered were at the discretion of the operator. The standard initial dose of an unknown compound on the first rabbit was 5×10^-5 M/kg. In general, two to three rabbits were used to determine anti-arrhythmic activity and the dose range of activity; multiple doses were administered. Once activity and dose was indicated, two additional rabbits were employed to confirm anti-arrhythmic activity against a multifocal tachycardia.

[8] = test system: Ouabain-induced arrhythmia; test: Conversion of ouabain-induced arrhythmia in dogs; assay type: in vivo, mongrel dogs; design: key: active (A); inactive (I)
Protocol: as §1
Na-pentobarbital supplements were given i.v. as needed.
Both parameters were printed out on a Grass polygraph.

Row | SMILES | Renal Hypertensive Dog MED10 (minimum repeated oral daily dose for sustained lowering of blood pressure of 10% or greater) [5] | ED50 [2] | Actual percentage inhibition of heart rate increase above control level observed at the indicated dose ([3]; 1.0 mg./kg.) | Dog β-blockade AED50 (approximate intravenous dose for 50% inhibition of isoproterenol-elicited heart rate increase) [3] | Actual reduction in blood pressure observed at the indicated dose ([4]; 20 mg./kg.) | Antihypertensive activity SH Rat AHD40 (single oral dose required to induce a 40 mm. average reduction in systolic blood pressure) [4] | Actual percentage reduction in blood pressure observed at the indicated dose [5] | Conversion of Ba++-induced Arrhythmia ([7]; 2.5 × 10^-6 M/kg.) | Rabbit Ear Artery vasodilation (percentage reduction in perfusion pressure from control level) ([1]; 5 × 10^-5 M, 50 µM) | Actual reduction in blood pressure observed at the indicated dose ([4]; 50 mg./kg.) | also measured
1 | COc1ccc(CCC(C)NCC(O)c2ccc(O)c([S+](C)[O-])c2)cc1 (stereo not drawn) [Example 2G, 4-hydroxy-α-<{[3-(4-methoxyphenyl)-1-methylpropyl]amino}methyl>-3-(methylsulfinyl)benzenemethanol acetate salt] | 0.0316 mg/kg | – | – | – | – | – | – | – | – | – | Rabbit Ear Artery vasodilation (percentage reduction in perfusion pressure from control level) ([1]; 5 × 10^-5 M, 50 µM, acetate salt): 50%; Vasodilator activity Dog-Leg Perfusion AED50 (approximate intraarterial dose for 50 reduction in perfusion pressure) ([2]; acetate salt): 0.5 mg/kg; Dog β-blockade AED50 (approximate intravenous dose for 50% inhibition of isoproterenol-elicited heart rate increase) ([3]; acetate salt): 0.025 mg/kg; Antihypertensive activity SH Rat AHD40 (single oral dose required to induce a 40 mm. average reduction in systolic blood pressure) ([4]; acetate salt): 2.0 mg/kg; Antihypertensive activity (in words) ([4]; standard pharmacological tests on representative examples): high antihypertensive activity; Time of mortality after i.v. administration ([6]; i.v.): ≤ 1 min; Symptoms of acute intoxication for the fatalities ([6]; mouse, in vivo): atoxia, loss of righting reflux, clonic convulsions and dyspnea followed by respiratory arrest; Untoward symptoms in survivors ([6]; mouse, in vivo): no untoward symptoms observed for up to 7 days for the survivors; LD50 ([6]; mouse, in vivo, iv): 75 mg/kg; LD50 ([6]; mouse, in vivo, po): 1500 mg/kg; Time of mortality after oral administration ([6]; oral): ≤ 10 min
2 | COc1ccc(CCC(C)(C)NCC(O)c2ccc(O)c([S+](C)[O-])c2)cc1 (stereo not drawn) [Example 18D, α-<{[1,1-dimethyl-3-(4-methoxyphenyl)propyl]amino}methyl>-4-hydroxy-3-(methylsulfinyl)benzenemethanol acetate salt] | > 0.125 mg/kg | 0.5 mg/kg | 100% | < 1.0 mg/kg | -26 mm. Hg | > 20.0 mg/kg | 0% | – | – | – | Conversion of Ba++-induced Arrhythmia ([7]; 5 × 10^-6 M/kg.): A; Rabbit Ear Artery vasodilation (percentage reduction in perfusion pressure from control level) ([1]; 1 × 10^-4 M, 100 µM): 42%
3 | CC(=O)O.C[S+]([O-])c1cc(C(O)CNC(C)(C)CCc2ccccc2)ccc1O (stereo not drawn) [Example 17C, α-{[(1,1-dimethyl-3-phenylpropyl)amino]methyl}-4-hydroxy-3-(methylsulfinyl)benzenemethanol acetate salt] | – | 0.5 mg/kg | – | 0.05 mg/kg | -37 mm. Hg | > 20.0 mg/kg | – | A | 50% | – | Conversion of Ouabain-induced Arrhythmia ([8]; 5 × 10^-6 M/kg.): A
4 | COc1ccc(CCC(C)(C)NCCc2ccc(O)c([S+](C)[O-])c2)cc1 (stereo not drawn) [Example 34C, 4-<2-{[3-(4-methoxyphenyl)-1,1-dimethylpropyl]amino}ethyl>-2-(methylsulfinyl)phenol hydrochloride] | – | – | 40% | > 1.0 mg/kg | – | > 50 mg/kg | – | A | – | -8 mm. Hg | Conversion of Ouabain-induced Arrhythmia ([8]; 2 × 10^-5 M/kg.): A
5 | CC(CCc1ccc(O)cc1)NCCc1ccc(O)c([S+](C)[O-])c1 (single isomer, unassigned) [Example 30E, 4-<2-{[3-(4-hydroxy-phenyl)-1-mehylpropyl]amino}ethyl>-2-(methylsulfinyl)phenol hydrochloride] | – | – | – | ca. 0.50 mg./kg. | – | > 50 mg/kg | – | – | – | -3 mm. Hg | Conversion of Ouabain-induced Arrhythmia ([8]; 1 × 10^-5 M/kg.): A; Conversion of Ba++-induced Arrhythmia ([7]; 2 × 10^-5 M/kg.): A
6 | CC(=O)O.CC(CCc1ccccc1)NCC(O)c1ccc(O)c([S+](C)[O-])c1 (stereo not drawn) [Example 19C, 4-hydroxy-α-{[(1-methyl-3-phenylpropyl)amino]methyl}-3-(methylsulfinyl)benzenemethanol acetate salt] | > 0.125 mg/kg | 0.5 mg/kg | – | < 0.025 mg/kg | – | 20.0 mg/kg | 0% | A | 50% | – | Conversion of Ouabain-induced Arrhythmia ([8]; 5 × 10^-5 M/kg.): A; Actual percentage inhibition of heart rate increase above control level observed at the indicated dose ([3]; 0.025 mg./kg.): 67%
